# Test results from patent US6913767B1, “Compositions for microencapsulation of antigens for use as vaccines” (priority 1993, dated 2005).
# Experiment: Stability (intact fraction) of QS21
# Format: physicochemical
# Details: same time (74 days), same conditions
# Procedure: QS21 controls were also run. In RP-HPLC analysis, the rgp120 peak elutes before the QS21 peak and, therefore, this method provides simultaneous quantitation of QS21 and rgp120 released from the microspheres.
# Microspheres containing QS21, or QS21 with MN rgp120, were incubated in physiological buffer at 37° C. to assess the time for release of the second burst.
substance,measurement,value
QS21,intact QS21 in solution,less than 25%
